Assay results taken from PMC6201103, “The Small-Compound Inhibitor K22 Displays Broad Antiviral Activity against Different Members of the Family Flaviviridae and Offers Potential as a Panviral Inhibitor” (Antimicrobial Agents and Chemotherapy, 2018).

Columns and labels:
ZIKV = assay: Combination treatment, ZIKV titers (TCID50) in Vero B4 cells; conditions: 24 h p.i., Vero B4 cells
Vero B4 cells = assay: Proliferation/viability, MultiTox-Fluor multiplex cytotoxicity assay on Vero B4 cells; type: cell-based
Procedure: To evaluate the effect of K22 on cell viability, proliferation, as well as cytotoxicity, uninfected cells were treated with the compound at the concentrations specified above or with DMSO as a control. To determine the effect of K22 on cell viability, Vero cells were collected and labeled with the Fixable Aqua dead cell stain kit (Thermo Fisher Scientific) for 30 min on ice, before the cells were washed with cold PBS and fixed for flow cytometry analysis. As a positive control for cell death, cells were heated at 65°C for 30 min. The mean fluorescence intensity (MFI) was determined by flow cytometry analysis on a FACSCanto II flow cytometer (BD Bioscience) and evaluated using FlowJo (v.9.1) software. […] The compound was added at the concentrations indicated above, and cytotoxicity was determined at 24 and/or 48 h p.i. by determination of the absorbance at 490 nm using a plate reader (VersaMax [Molecular Devices, Wokingham, UK] or an EnSpire 2300 multilabel reader [PerkinElmer, Schwerzenbach, Switzerland]). Cell proliferation following compound treatment was determined using a MultiTox-Fluor multiplex cytotoxicity assay (catalog number G9200; Promega) according to the manufacturer's recommendations. The readout was performed using a multilabel reader (EnSpire 2300 multilabel reader; PerkinElmer) upon excitation at ∼400 nm and emission at ∼505 nm. […]

NC(=O)c1ncn([C@@H]2O[C@H](CO)[C@@H](O)[C@H]2O)n1 [RBV, ribavirin, reference compound]
effect of single treatment on ZIKV viral titers (ZIKV; 10 μg/ml RBV): moderately reduced the viral titers | effect of single treatment on ZIKV viral titers (ZIKV; 100 μg/ml and 1,000 μg/ml RBV): significantly reduced viral titers

IFN-α
effect of IFN-α on cell viability (Vero B4 cells): no effect on cell viability | IFN-α doses effective against ZIKV (ZIKV; single treatment): ≥ 10 IU
